# According to article PMC3961306, “Comparison of the Cancer Gene Targeting and Biochemical Selectivities of All Targeted Kinase Inhibitors Approved for Clinical Use” (PLoS ONE, 2014):
# How the values were obtained:
# Assay in all cases: Kinase profiling in a biochemical assay panel (mobility shift assays and ELISA), %-inhibition at 1 μM; selectivity entropy
# [1] = molecular target: panel of more than 300 wild-type and mutant kinases (313 kinase panel) (Homo sapiens, UniProt P42684)
# [2] = molecular target: panel of more than 300 wild-type and mutant kinases (313 kinase panel) (Homo sapiens, UniProt P54764)
# [3] = molecular target: T1, panel of more than 300 wild-type and mutant kinases (313 kinase panel) (Homo sapiens, UniProt Q9NWZ3)
# T1 sequence (Q9NWZ3 1-460): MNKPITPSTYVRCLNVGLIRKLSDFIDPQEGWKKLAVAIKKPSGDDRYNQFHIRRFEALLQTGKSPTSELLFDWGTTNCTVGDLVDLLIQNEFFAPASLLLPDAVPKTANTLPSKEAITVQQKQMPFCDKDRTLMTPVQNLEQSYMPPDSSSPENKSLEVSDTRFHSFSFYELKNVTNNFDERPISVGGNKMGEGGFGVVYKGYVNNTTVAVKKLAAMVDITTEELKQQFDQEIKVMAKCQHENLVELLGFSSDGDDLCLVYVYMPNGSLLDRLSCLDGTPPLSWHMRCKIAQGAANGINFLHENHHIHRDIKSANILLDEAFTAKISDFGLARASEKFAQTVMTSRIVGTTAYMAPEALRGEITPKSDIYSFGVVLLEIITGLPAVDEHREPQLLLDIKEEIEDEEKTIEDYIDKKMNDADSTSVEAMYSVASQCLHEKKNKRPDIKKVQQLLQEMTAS
# [4] = molecular target: T2, panel of more than 300 wild-type and mutant kinases (313 kinase panel) (Homo sapiens, UniProt O15111)
# T2 sequence (O15111 1-745): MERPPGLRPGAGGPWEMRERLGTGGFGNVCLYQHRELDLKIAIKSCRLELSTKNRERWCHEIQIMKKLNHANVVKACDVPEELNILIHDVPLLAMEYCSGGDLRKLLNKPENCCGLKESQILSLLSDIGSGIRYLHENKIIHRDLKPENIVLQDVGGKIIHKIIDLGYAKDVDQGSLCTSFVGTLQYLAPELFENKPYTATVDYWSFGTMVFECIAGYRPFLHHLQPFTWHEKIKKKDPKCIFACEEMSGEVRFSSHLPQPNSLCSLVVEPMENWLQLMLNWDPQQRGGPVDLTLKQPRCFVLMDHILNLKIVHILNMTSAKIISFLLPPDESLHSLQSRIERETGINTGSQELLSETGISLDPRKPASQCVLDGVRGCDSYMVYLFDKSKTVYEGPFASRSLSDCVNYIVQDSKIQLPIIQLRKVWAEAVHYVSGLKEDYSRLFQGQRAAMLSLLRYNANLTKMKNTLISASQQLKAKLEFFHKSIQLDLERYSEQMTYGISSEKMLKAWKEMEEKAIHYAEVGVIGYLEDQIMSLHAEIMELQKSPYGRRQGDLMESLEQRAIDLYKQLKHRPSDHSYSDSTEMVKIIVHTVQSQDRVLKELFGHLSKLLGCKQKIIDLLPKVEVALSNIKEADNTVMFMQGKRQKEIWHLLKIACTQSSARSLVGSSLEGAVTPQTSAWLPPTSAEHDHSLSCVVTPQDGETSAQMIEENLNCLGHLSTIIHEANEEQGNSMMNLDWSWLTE
# [5] = molecular target: panel of more than 300 wild-type and mutant kinases (313 kinase panel) (Homo sapiens, UniProt P27448)
# [6] = molecular target: panel of more than 300 wild-type and mutant kinases (313 kinase panel) (Homo sapiens, UniProt P08631)
# [7] = molecular target: T3, panel of more than 300 wild-type and mutant kinases (313 kinase panel) (Homo sapiens, UniProt Q9H093)
# T3 sequence (Q9H093 1-628): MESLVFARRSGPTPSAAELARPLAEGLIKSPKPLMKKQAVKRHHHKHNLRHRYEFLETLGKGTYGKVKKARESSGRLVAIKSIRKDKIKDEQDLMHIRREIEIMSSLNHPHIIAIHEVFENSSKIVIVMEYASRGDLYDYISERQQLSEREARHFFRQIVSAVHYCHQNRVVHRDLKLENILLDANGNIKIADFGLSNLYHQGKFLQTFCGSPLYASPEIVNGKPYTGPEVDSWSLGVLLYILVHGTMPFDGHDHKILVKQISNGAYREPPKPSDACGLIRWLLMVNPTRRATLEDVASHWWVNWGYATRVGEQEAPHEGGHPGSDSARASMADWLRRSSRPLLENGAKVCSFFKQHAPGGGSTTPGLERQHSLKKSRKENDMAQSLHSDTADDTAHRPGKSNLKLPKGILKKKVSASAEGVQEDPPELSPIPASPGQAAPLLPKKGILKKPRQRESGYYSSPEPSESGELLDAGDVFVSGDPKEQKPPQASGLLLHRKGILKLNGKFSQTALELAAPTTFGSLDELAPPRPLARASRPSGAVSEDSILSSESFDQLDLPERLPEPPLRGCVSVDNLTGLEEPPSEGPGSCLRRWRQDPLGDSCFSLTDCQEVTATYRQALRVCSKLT
# [8] = molecular target: panel of more than 300 wild-type and mutant kinases (313 kinase panel) (Homo sapiens, UniProt O60674)
# Chain of panel of more than 300 wild-type and mutant kinases (313 kinase panel) (Homo sapiens, UniProt O60674) (O60674 whole entry, change not shown): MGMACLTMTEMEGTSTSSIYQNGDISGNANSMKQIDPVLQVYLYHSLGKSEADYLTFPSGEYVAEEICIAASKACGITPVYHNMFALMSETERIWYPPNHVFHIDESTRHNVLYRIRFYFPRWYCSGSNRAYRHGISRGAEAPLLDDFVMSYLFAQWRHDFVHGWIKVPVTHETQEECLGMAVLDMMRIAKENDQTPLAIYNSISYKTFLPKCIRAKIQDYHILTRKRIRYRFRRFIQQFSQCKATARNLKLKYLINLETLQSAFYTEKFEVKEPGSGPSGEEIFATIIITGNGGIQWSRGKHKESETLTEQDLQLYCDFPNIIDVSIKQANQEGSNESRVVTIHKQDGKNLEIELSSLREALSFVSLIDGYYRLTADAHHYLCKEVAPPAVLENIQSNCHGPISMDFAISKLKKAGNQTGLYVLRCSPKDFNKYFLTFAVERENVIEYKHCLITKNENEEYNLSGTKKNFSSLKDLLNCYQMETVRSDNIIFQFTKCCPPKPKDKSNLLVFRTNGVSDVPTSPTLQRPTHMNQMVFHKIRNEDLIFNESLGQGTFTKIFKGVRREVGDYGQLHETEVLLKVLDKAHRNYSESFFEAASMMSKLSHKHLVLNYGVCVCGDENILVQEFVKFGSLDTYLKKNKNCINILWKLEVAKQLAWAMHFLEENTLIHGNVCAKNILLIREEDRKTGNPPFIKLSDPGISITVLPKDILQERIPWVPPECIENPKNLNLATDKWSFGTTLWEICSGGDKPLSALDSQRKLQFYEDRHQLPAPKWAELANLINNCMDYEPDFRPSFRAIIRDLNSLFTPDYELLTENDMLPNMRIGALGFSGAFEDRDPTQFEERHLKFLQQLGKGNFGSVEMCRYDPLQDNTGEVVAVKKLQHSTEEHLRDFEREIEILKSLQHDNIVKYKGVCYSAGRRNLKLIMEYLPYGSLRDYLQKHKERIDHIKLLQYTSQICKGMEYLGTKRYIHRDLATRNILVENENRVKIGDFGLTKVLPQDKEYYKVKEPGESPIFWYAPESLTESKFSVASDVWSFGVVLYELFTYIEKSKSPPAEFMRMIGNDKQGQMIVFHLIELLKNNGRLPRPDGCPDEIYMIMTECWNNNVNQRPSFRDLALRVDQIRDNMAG
# Chain of panel of more than 300 wild-type and mutant kinases (313 kinase panel) (Homo sapiens, UniProt P54764) (P54764 20-986, change not shown): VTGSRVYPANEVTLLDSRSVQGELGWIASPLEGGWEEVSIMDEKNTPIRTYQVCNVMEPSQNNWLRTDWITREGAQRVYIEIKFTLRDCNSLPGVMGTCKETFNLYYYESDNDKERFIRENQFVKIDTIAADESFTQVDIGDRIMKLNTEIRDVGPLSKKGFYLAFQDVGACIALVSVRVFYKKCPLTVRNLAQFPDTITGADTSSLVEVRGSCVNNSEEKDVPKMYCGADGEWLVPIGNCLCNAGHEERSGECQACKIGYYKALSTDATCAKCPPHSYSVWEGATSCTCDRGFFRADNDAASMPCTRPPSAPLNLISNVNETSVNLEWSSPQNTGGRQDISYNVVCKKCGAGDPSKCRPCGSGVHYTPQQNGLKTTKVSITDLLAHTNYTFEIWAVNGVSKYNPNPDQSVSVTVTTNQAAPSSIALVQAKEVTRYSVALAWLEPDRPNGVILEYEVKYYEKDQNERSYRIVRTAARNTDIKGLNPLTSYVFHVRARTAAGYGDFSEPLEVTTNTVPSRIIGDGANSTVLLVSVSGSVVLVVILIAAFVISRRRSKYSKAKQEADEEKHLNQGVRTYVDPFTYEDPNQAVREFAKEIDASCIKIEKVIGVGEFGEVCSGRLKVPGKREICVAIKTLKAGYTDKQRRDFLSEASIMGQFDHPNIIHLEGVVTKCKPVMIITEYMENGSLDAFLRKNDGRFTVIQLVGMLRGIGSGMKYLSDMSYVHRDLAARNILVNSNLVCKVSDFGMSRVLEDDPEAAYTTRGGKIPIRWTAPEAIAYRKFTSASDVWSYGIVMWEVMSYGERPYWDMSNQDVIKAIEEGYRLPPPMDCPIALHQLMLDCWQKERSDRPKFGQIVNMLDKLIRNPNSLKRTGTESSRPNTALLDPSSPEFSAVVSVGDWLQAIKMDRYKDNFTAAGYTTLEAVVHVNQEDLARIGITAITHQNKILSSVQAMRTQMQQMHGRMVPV
# Chain of panel of more than 300 wild-type and mutant kinases (313 kinase panel) (Homo sapiens, UniProt P08631) (P08631 whole entry, change not shown): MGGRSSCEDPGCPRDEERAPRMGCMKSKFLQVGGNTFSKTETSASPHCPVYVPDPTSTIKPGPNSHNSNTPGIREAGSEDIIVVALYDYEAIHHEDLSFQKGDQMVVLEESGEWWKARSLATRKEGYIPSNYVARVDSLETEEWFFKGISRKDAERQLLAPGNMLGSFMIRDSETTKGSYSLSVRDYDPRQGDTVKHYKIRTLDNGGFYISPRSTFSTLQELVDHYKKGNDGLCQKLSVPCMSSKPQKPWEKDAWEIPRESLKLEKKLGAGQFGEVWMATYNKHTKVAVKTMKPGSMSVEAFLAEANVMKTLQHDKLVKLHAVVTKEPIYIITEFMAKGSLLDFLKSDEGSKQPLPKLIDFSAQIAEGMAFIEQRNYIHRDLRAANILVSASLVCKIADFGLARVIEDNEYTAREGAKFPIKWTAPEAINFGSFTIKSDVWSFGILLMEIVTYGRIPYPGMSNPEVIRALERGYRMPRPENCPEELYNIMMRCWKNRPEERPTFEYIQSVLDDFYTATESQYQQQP
# Chain of panel of more than 300 wild-type and mutant kinases (313 kinase panel) (Homo sapiens, UniProt P27448) (P27448 whole entry, change not shown): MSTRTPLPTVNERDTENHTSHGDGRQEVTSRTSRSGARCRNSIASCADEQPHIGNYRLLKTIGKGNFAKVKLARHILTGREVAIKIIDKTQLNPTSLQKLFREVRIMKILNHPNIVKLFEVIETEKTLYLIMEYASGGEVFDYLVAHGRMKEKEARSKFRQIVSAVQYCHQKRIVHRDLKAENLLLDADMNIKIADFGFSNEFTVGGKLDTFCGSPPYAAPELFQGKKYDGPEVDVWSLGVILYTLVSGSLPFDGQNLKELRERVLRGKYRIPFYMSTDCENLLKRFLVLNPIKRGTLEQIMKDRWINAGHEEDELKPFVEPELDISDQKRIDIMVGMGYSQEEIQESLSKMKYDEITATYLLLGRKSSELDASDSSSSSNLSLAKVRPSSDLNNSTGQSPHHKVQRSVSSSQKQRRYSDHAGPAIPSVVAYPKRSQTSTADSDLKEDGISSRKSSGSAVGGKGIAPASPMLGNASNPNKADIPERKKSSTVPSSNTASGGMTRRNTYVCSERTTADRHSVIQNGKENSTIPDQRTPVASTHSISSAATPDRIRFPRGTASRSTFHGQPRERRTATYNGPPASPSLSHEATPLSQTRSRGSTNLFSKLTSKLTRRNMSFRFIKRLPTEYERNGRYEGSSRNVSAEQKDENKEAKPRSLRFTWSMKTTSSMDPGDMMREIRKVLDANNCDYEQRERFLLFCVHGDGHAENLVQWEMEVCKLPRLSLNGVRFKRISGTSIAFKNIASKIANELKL
Compound,"%-inhibition, ARG ([1]; kinase ARG, 1 μM compound) [%]","%-inhibition of EPHA4 ([2]; kinase EPHA4, compound at 1 μM) [%]","%-inhibition of IRAK4 ([3]; kinase IRAK4, compound at 1 μM) [%]","%-inhibition of IKKα ([4]; kinase IKKα, compound at 1 μM) [%]","%-inhibition of MARK3 ([5]; kinase MARK3, compound at 1 μM) [%]","%-inhibition of HCK ([6]; kinase HCK, compound at 1 μM) [%]","%-inhibition of NuaK2 ([7]; kinase NuaK2, 1 μM) [%]","%-inhibition of JAK2 ([8]; kinase JAK2, compound at 1 μM) [%]",%-inhibition of IRAK4 ([3]; 1 µM) [%],%-inhibition of EPHA4 ([2]; 1 µM) [%],%-inhibition of IKKα ([4]; 1 µM) [%],%-inhibition of JAK2 ([8]; 1 µM) [%],%-inhibition of MARK3 ([5]; 1 µM) [%],%-inhibition of HCK ([6]; 1 µM) [%],%-inhibition of NuaK2 ([7]; 1 µM) [%],"%-inhibition, ARG ([1]; 1 µM) [%]"
CO[C@H]1C[C@@H]2CC[C@@H](C)[C@@](O)(O2)C(=O)C(=O)N2CCCC[C@H]2C(=O)O[C@H]([C@H](C)C[C@@H]2CC[C@@H](OC(=O)C(C)(CO)CO)[C@H](OC)C2)CC(=O)[C@H](C)/C=C(\C)[C@@H](O)[C@@H](OC)C(=O)[C@H](C)C[C@H](C)/C=C/C=C/C=C/1C [temsirolimus],-1.55,-4.51,-5.36,1.39,-0.859,3.49,-5.44,–,–,–,–,–,–,–,–,–
CNC(=O)c1cc(Oc2ccc(NC(=O)Nc3ccc(Cl)c(C(F)(F)F)c3)c(F)c2)ccn1 [regorafenib],35,92,1.07,-0.333,-3.48,59,-24,33,–,–,–,–,–,–,–,–
CO[C@H]1C[C@@H]2CC[C@@H](C)[C@@](O)(O2)C(=O)C(=O)N2CCCC[C@H]2C(=O)O[C@H]([C@H](C)C[C@@H]2CC[C@@H](OCCO)[C@H](OC)C2)CC(=O)[C@H](C)/C=C(\C)[C@@H](O)[C@@H](OC)C(=O)[C@H](C)C[C@H](C)/C=C/C=C/C=C/1C [everolimus],1.07,-2.61,-6,-3.22,-4,-2.7,-0.726,–,–,–,–,–,–,–,–,–
COc1cc2nccc(Oc3ccc(NC(=O)C4(C(=O)Nc5ccc(F)cc5)CC4)cc3)c2cc1OC [cabozantinib],29,97,-4,-1.89,-3,95,1.63,29,–,–,–,–,–,–,–,–
Cc1nc(Nc2ncc(C(=O)Nc3c(C)cccc3Cl)s2)cc(N2CCN(CCO)CC2)n1 [dasatinib],–,–,–,–,–,–,3,–,–,–,–,–,–,–,–,–
COc1cc2c(Nc3ccc(Br)cc3F)ncnc2cc1OCC1CCN(C)CC1 [vandetanib],94,–,–,-4.38,4,–,-14,0.942,–,–,–,–,–,–,–,–
CC(C)(C)c1nc(-c2cccc(NS(=O)(=O)c3c(F)cccc3F)c2F)c(-c2ccnc(N)n2)s1 [dabrafenib],54,12,–,–,4,57,4.53,–,–,–,–,–,–,–,–,–
Cc1ccc(Nc2nccc(N(C)c3ccc4c(C)n(C)nc4c3)n2)cc1S(N)(=O)=O [pazopanib],67,22,-0.622,-1.68,4.45,67,2.81,50,–,–,–,–,–,–,–,–
N#CC[C@H](C1CCCC1)n1cc(-c2ncnc3[nH]ccc23)cn1 [ruxolitinib],6,12,–,-2.5,–,9,41,–,-3.69,–,–,–,–,–,–,–
C[C@@H](Oc1cc(-c2cnn(C3CCNCC3)c2)cnc1N)c1c(Cl)ccc(F)c1Cl [crizotinib],80,58,8,-1.78,41,26,87,98,–,–,–,–,–,–,–,–
CCCS(=O)(=O)Nc1ccc(F)c(C(=O)c2c[nH]c3ncc(-c4ccc(Cl)cc4)cc23)c1F [vemurafenib],7,-2,-4.29,-1.89,-0.226,30,4.36,18,–,–,–,–,–,–,–,–
C#Cc1cccc(Nc2ncnc3cc(OCCOC)c(OCCOC)cc23)c1 [erlotinib],–,–,–,–,–,–,–,–,3,32,-5,36,9,26,-0.531,–
Cc1cn(-c2cc(NC(=O)c3ccc(C)c(Nc4nccc(-c5cccnc5)n4)c3)cc(C(F)(F)F)c2)cn1 [nilotinib],–,–,-29,1.27,11,–,–,19,–,–,–,–,–,73,-44,95
COc1cc(Nc2c(C#N)cnc3cc(OCCCN4CCN(C)CC4)c(OC)cc23)c(Cl)cc1Cl [bosutinib],–,–,27,1.66,–,89,87,64,–,–,–,–,–,–,–,–
CCN(CC)CCNC(=O)c1c(C)[nH]c(/C=C2\C(=O)Nc3ccc(F)cc32)c1C [sunitinib],–,–,48,0.813,–,–,–,–,–,–,–,–,–,–,–,–
CC(=O)Nc1cccc(-n2c(=O)n(C3CC3)c(=O)c3c(Nc4ccc(I)cc4F)n(C)c(=O)c(C)c32)c1 [trametinib],-4,-5.3,-5,2.63,-3.21,-2.84,9,–,–,–,–,–,–,–,–,–
Cc1ccc(C(=O)Nc2ccc(CN3CCN(C)CC3)c(C(F)(F)F)c2)cc1C#Cc1cnc2cccnn12 [ponatinib],100,–,29,27,–,98,-13,92,–,–,–,–,–,–,–,–
